Values of other authors as cited in patent US7947714B2, “Piperidine glycine transporter inhibitors” (Merck, Sharp & Dohme Corp., priority 2005, dated 2011).

Legend:
[1] = mice
NMDA receptor = details: rat; blockade of GlyT1
[2] = high doses, oral, add-on to standard neuroleptic therapy
[3] = patients suffering from schizophrenia, poorly responsive to antipsychotic drugs

CN(CCC(Oc1ccc(-c2ccccc2)cc1)c1ccc(F)cc1)CC(=O)O (stereo not shown) [NFPS, (N-[3-(4′-fluorophenyl)-3-(4′-phenylphenoxy)propyl])sarcosine]
effect on pre-pulse inhibition (measure of sensory gating) [1]: enhance pre-pulse inhibition
effect on NMDA receptor activity and NMDA receptor-dependent long-term potentiation (NMDA receptor): potentiates NMDA receptor activity and NMDA receptor-dependent long-term potentiation

NCC(=O)O [glycine]
effect on symptoms of schizophrenia [2]: improvement of the symptoms

CNCC(=O)O [sarcosine]
effect on positive, negative and cognitive symptoms of schizophrenia [3]: beneficial effect was observed on positive, negative and cognitive symptoms
